Laboratory results: article PMC9311539, “Antibacterial Activity against Clinical Isolates and In Vivo Efficacy of Coralmycins” (Antibiotics, 2022)
Converted amounts (≈) assume the structure as drawn.

What was measured:
MSSA = assay: MIC, broth microdilution, clinical isolates: MSSA; assay type: cell-based; conditions: Staphylococcus aureus, 26 clinical isolates
Method: (§1) To assess the MICs for antibiotic susceptibility, Gram-positive bacteria isolated from human clinical specimens were obtained from several general hospitals in Seoul, Korea, during 2002–2018. Staphylococcus aureus Giorgio and Streptococcus pneumoniae ATCC49619 were used to test in vivo efficacies against […], in mice.
(§2) The MICs of the antimicrobial agents were determined by a twofold microdilution broth method, as described by the Clinical and Laboratory Standards Institute. Briefly, test organisms were grown on Mueller–Hinton agar (MHA, BD Difco, Sparks, MD, USA) plates, subcultured into cation-adjusted Mueller–Hinton broth (CAMHB, BD Difco, Sparks, MD, USA), and incubated for 18 h at 35 °C. For S. pneumoniae culture, 5% sheep blood (Hanil Comed, Seongnam, Korea) was added. The cultured bacteria were diluted using phosphate-buffered saline (PBS) to achieve a bacterial cell density of approximately 5 × 10^6 CFU/mL. All test organisms were loaded into 96-well plates containing serial dilutions of the antimicrobial agents to achieve a concentration of 5 × 10^4 CFU/well. The plates were incubated at 35 °C for 18–20 h and examined for bacterial growth.

MRSA = assay: MIC, broth microdilution, clinical isolates: MRSA; assay type: cell-based, Staphylococcus aureus
Method: as §1, §2

[1] = tested on: CNS (coagulase-negative staphylococci); assay: MIC, broth microdilution, clinical isolates: CNS; assay type: cell-based; conditions: 31 clinical isolates
Method: as §1, §2

VRE = assay: MIC, broth microdilution, clinical isolates: VRE; assay type: cell-based, vancomycin-resistant Enterococcus; conditions: Enterococcus, VRE, 46 clinical isolates
Method: as §1, §2

S. pneumoniae = assay: MIC, broth microdilution, clinical isolates: S. pneumoniae; assay type: cell-based, Streptococcus pneumoniae; conditions: Streptococcus pneumoniae, 27 clinical isolates
Method: as §1, §2

[2] = tested on: Vancomycin-sensitive E. faecalis; assay: MIC, broth microdilution, clinical isolates: vancomycin-sensitive E. faecalis; assay type: cell-based, Enterococcus faecalis; conditions: Enterococcus faecalis, 32 clinical isolates
Method: as §1, §2

[3] = tested on: Vancomycin-sensitive E. faecium; assay: MIC, broth microdilution, clinical isolates: vancomycin-sensitive E. faecium; assay type: cell-based, Enterococcus faecium; conditions: Enterococcus faecium, 32 clinical isolates
Method: as §1, §2

S. aureus Giorgio [4] = assay: MIC against S. aureus Giorgio; assay type: cell-based, Staphylococcus aureus; conditions: Staphylococcus aureus; read-out: MIC
Method: as §2

S. pneumoniae ATCC49619 [5] = assay: MIC against S. pneumoniae ATCC49619; assay type: cell-based; conditions: Streptococcus pneumoniae, ATCC49619; read-out: MIC
Method: as §2

MRSA CCARM 3167 [6] = assay: MIC against MRSA CCARM 3167; assay type: cell-based; conditions: Staphylococcus aureus; read-out: MIC
Method: as §2

VRE 3 [7] = assay: MIC against VRE 3; assay type: cell-based, vancomycin-resistant Enterococcus; conditions: Enterococcus, read-out: MIC
Method: as §2

S. aureus Giorgio [8] = assay: Time-kill assay, S. aureus Giorgio; assay type: cell-based, Staphylococcus aureus
Method: (§3) Time-kill analysis was performed by the NCCLS M26-A method. The test organisms (S. aureus Giorgio, S. pneumoniae ATCC49619, MRSA CCARM 3167, and VRE 3) incubated in CAMHB for 18 h at 35 °C were diluted to 10^5 CFU/mL with fresh CAMHB, and the diluted cultures were preincubated for 2 h. For S. pneumoniae culture, 5% sheep blood (Hanil Comed, Seongnam, Korea) was added. […] Culture aliquots (0.1 mL) were removed after 0, 2, 4, 6 and 24 h of incubation, and serial 10-fold dilutions were prepared in saline as needed. The numbers of viable cells were determined on drug-free MHA plates after 20 h of incubation. A compound was considered bactericidal if the original inoculum was reduced by 3 log CFU/mL (99.9%) at each concentration or was considered bacteriostatic if the inoculum was reduced by 0–3 log CFU/mL.

S. pneumoniae ATCC49619 [9] = assay: Time-kill assay, S. pneumoniae ATCC49619; assay type: cell-based, Streptococcus pneumoniae
Method: as §3

MRSA CCARM 3167 [10] = assay: Time-kill assay, MRSA CCARM 3167; assay type: cell-based, Staphylococcus aureus
Method: as §3

VRE 3 [11] = assay: Time-kill assay, VRE 3; assay type: cell-based, vancomycin-resistant Enterococcus
Method: as §3

S. aureus Giorgio [12] = assay: Neutropenic mouse thigh infection model; assay type: in vivo, female ICR mice
Method: (§4) For the respiratory tract infection model, neutropenic mice were anesthetized and intranasally inoculated with a 50 μL suspension of S. pneumoniae ATCC49619 (4.4 × 10^8 CFU/mL). For the thigh infection model, the neutropenic mice were administered an intramuscular injection of a 100 μL suspension of S. aureus Giorgio (1 × 10^6 CFU/mL) into both thighs. For both models, four mice were included in each group. At 2 h after infection, two mice were sacrificed, and the infected thighs or lungs (n = 4) were excised to determine the initial bacterial levels. […] At 24 h after infection, the mice were sacrificed by cervical dislocation; their thighs or lungs were removed, homogenized, serially diluted with saline, and plated onto MHA to count the number of bacteria remaining. The number of viable bacterial cells (CFU) in the thighs or lungs of vehicle- and drug-treated mice was determined.

S. pneumoniae ATCC49619 [13] = assay: Neutropenic mouse respiratory tract infection model; assay type: in vivo, female ICR mice
Method: as §4

in vivo = conditions: female, ICR, mouse, plasma

## CO[C@@H](C(N)=O)[C@H](NC(=O)c1ccc(NC(=O)c2ccc([N+](=O)[O-])cc2)cc1)C(=O)Nc1ccc(C(=O)Nc2ccc(C(=O)Nc3ccc(C(=O)O)cc3OC(C)C)c(O)c2OC(C)C)cc1 [DH-coralmycin A]
MSSA; read-out: MIC50
  MIC50: 1 µg/mL (≈ 1.09 µM)
MSSA; read-out: MIC90
  MIC90: 2 µg/mL (≈ 2.17 µM)
MRSA; Staphylococcus aureus, MRSA, 42 clinical isolates, read-out: MIC50
  MIC50: 4 µg/mL (≈ 4.35 µM)
MRSA; Staphylococcus aureus, MRSA, 42 clinical isolates, read-out: MIC90
  MIC90: 8 µg/mL (≈ 8.7 µM)
MRSA; against MRSA, CNS, and VRE
  times less active than coralmycin A as evidenced by the MIC90: 8 to 16 times
[1]; read-out: MIC50
  MIC50: 1 µg/mL (≈ 1.09 µM)
[1]; read-out: MIC90
  MIC90: 16 µg/mL (≈ 17.4 µM)
VRE; read-out: MIC50
  MIC50: 4 µg/mL (≈ 4.35 µM)
VRE; read-out: MIC90
  MIC90: 16 µg/mL (≈ 17.4 µM)
S. pneumoniae; read-out: MIC50
  MIC50: 0.5 µg/mL (≈ 0.544 µM)
S. pneumoniae; read-out: MIC90
  MIC90: 4 µg/mL (≈ 4.35 µM)
[2]; read-out: MIC50
  MIC50: 2 µg/mL (≈ 2.17 µM)
[2]; read-out: MIC90
  MIC90: 4 µg/mL (≈ 4.35 µM)
[3]; read-out: MIC50
  MIC50: 1 µg/mL (≈ 1.09 µM)
[3]; read-out: MIC90
  MIC90: 4 µg/mL (≈ 4.35 µM)
S. aureus Giorgio [4]
  MIC: 0.06 µg/mL (≈ 0.0652 µM)
S. pneumoniae ATCC49619 [5]
  MIC: 0.25 µg/mL (≈ 0.272 µM)
MRSA CCARM 3167 [6]
  MIC: 0.25 µg/mL (≈ 0.272 µM)
VRE 3 [7]
  MIC: 2 µg/mL (≈ 2.17 µM)
S. aureus Giorgio [8]; 1× MIC
  time-kill activity: bacteriostatic (considered bacteriostatic if the inoculum was reduced by 0–3 log CFU/mL)
S. aureus Giorgio [8]; 2× and 4× MIC, 24 h
  time-kill activity: bactericidal (considered bactericidal if the original inoculum was reduced by 3 log CFU/mL (99.9%) at each concentration)
S. pneumoniae ATCC49619 [9]; 1× MIC
  time-kill activity: bacteriostatic (considered bacteriostatic if the inoculum was reduced by 0–3 log CFU/mL)
S. pneumoniae ATCC49619 [9]; 2× and 4× MIC, 24 h
  time-kill activity: bactericidal (considered bactericidal if the original inoculum was reduced by 3 log CFU/mL (99.9%) at each concentration)
MRSA CCARM 3167 [10]; 1× MIC
  time-kill activity: bacteriostatic (considered bacteriostatic if the inoculum was reduced by 0–3 log CFU/mL)
MRSA CCARM 3167 [10]; 2× and 4× MIC, 24 h
  time-kill activity: bactericidal (considered bactericidal if the original inoculum was reduced by 3 log CFU/mL (99.9%) at each concentration)
VRE 3 [11]; 1× MIC
  time-kill activity: bacteriostatic (considered bacteriostatic if the inoculum was reduced by 0–3 log CFU/mL)
VRE 3 [11]; 2× and 4× MIC, 24 h
  time-kill activity: bactericidal (considered bactericidal if the original inoculum was reduced by 3 log CFU/mL (99.9%) at each concentration)
S. aureus Giorgio [12]; 20 mg/kg bid
  antibacterial effect in thigh infection model: almost no antibacterial effect
S. aureus Giorgio [12]; s.c. 4 and 20 mg/kg at 3 and 6 h after infection
  antibacterial effect in thigh infection model: almost no antibacterial effect
S. pneumoniae ATCC49619 [13]; 4 mg/kg bid s.c.
  in vivo effect (bacteriostatic or bactericidal): static effect
S. pneumoniae ATCC49619 [13]; 20 mg/kg bid s.c.
  in vivo effect (bacteriostatic or bactericidal): static effect
S. pneumoniae ATCC49619 [13]; 100 mg/kg bid s.c.
  in vivo effect (bacteriostatic or bactericidal): bactericidal effects
S. pneumoniae ATCC49619 [13]; first experiment, s.c. 4 and 20 mg/kg at 3 and 6 h after infection
  antibacterial effect in respiratory tract infection model: significant antibacterial effects
S. pneumoniae ATCC49619 [13]; second trial, s.c. 100 mg/kg bid
  reduction of the starting bacterial burden compared to the 2-h control group: 0.96 log10 CFU/lung
In vivo; iv, 2 mg/kg
  half-life: 2.16 ± 1.08 h
In vivo; sc, 20 mg/kg
  half-life: 7.01 ± 1.22 h
